Laboratory results as given in article PMC7025792 (ACS infectious diseases, 2019).
Converted amounts (≈) assume the structure as drawn. “And” between values parts separate entries of the source, which are not always exact repeats. Equal values may be shown once.

Legend:
DfrB = DfrB (Staphylococcus aureus, UniProt P0A017); type: biochemical; details: read-out: KM, DHF, NADPH saturation 100 μM
DfrA = DfrA (Staphylococcus aureus, UniProt P13955); assay: biochemical; type: biochemical
DfrG [1] = target: T1, DfrG (Staphylococcus aureus, UniProt Q4H3Y3); details: read-out: KM, DHF, NADPH saturation 100 μM
DfrK [2] = target: T2, DfrK (Staphylococcus aureus, UniProt C7C2U7); details: read-out: KM, DHF, NADPH saturation 100 μM
[3] = target: human DHFR isoform (HuDHFR) (Homo sapiens, UniProt P00374); details: read-out: KM, DHF, NADPH saturation 100 μM
UCH115 (dfrA) = assay: MIC, broth dilution, dfrA clinical isolate; type: cell-based; details: Staphylococcus aureus, 18 h, read-out: Minimum Inhibitory Concentrations
UCH121 (dfrG) = assay: MIC, broth dilution, dfrG clinical isolate; type: cell-based, Staphylococcus aureus; details: for MIC: Staphylococcus aureus, 18 h, read-out: Minimum Inhibitory Concentrations; for Minimum Inhibitory Concentrations: UCH121 (dfrG), 18 hour, 37°C, isosensitest broth
HH1184 (dfrK) = assay: MIC, broth dilution, dfrK clinical isolate; type: cell-based, Staphylococcus aureus; details: for Minimum Inhibitory Concentrations: HH1184 (dfrK), 18 hour, 37°C, isosensitest broth; for MIC: Staphylococcus aureus, 18 h, read-out: Minimum Inhibitory Concentrations
DfrG [4] = target: T1, DfrG; assay: biochemical
MCF10A = assay: Mammalian cytotoxicity, Alamar Blue; type: cell-based; details: Homo sapiens, MCF-10A, 4 h, read-out: Mammalian Toxicity IC50
HepG2 = assay: Mammalian cytotoxicity, Alamar Blue; type: cell-based; details: Homo sapiens, HepG2, 4 h, read-out: Mammalian Toxicity IC50
DfrK [5] = target: T2, DfrK; assay: biochemical; details: Enzymatic inhibition, Table 4, average of three experiments ±SD

DfrA, sequence (P13955 whole entry): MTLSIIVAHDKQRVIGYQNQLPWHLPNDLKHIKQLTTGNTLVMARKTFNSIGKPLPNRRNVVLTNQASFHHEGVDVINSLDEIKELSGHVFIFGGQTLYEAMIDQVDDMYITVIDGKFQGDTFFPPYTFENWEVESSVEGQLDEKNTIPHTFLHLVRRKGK
DfrB, sequence (P0A017 whole entry): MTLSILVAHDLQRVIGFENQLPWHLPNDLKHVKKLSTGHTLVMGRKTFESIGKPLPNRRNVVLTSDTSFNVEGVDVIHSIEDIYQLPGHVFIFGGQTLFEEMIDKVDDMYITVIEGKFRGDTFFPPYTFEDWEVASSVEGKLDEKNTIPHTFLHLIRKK
human DHFR isoform (HuDHFR), sequence (P00374 whole entry, canonical isoform): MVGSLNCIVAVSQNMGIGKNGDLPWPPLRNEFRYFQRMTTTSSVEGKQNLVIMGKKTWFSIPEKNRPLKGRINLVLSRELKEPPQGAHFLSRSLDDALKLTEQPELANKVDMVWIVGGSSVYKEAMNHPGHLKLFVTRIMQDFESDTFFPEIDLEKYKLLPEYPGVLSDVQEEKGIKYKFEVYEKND

Structure (SMILES) | Km (DfrB) | Km (DfrA; read-out: KM, DHF, DfrA, NADPH saturation 100 μM) | Km (DfrG [1]) | Km (DfrK [2]) | Km [3] | MIC (UCH115 (dfrA)) | MIC (UCH121 (dfrG)) | Minimum Inhibitory Concentrations (UCH121 (dfrG)) | Minimum Inhibitory Concentrations (HH1184 (dfrK)) | MIC (HH1184 (dfrK)) | Ki (DfrA) | Ki (DfrG [4]) | IC50 (MCF10A) | IC50 (HepG2) | Ki (DfrK [5])
Nc1nc(=O)c2c([nH]1)NCC(CNc1ccc(C(=O)N[C@@H](CCC(=O)O)C(=O)O)cc1)=N2 [DHF, dihydrofolate] | 13.3 µM and 13.4 µM | 5.76 µM | 8.87 µM and 8.9 µM | 11 µM | 10.5 µM |  |  |  |  |  |  |  |  |  | 
COc1cc(Cc2cnc(N)nc2N)c2c(c1OC)OC(C1CC1)C=C2 (stereo not shown) [Iclaprim, iclaprim] |  |  |  |  |  | 64 µg/mL (≈ 181 µM) | > 250 µg/mL | >250 µg/mL | >250 µg/mL | > 250 µg/mL | 90 ± 3 nM | 1350 ± 10 nM |  |  | 
CN(Cc1cnc2nc(N)nc(N)c2n1)c1ccc(C(=O)N[C@@H](CCC(=O)O)C(=O)O)cc1 [Methotrexate] |  |  |  |  |  | > 250 µg/mL | > 250 µg/mL |  |  | > 250 µg/mL | 0.38 ± 0.04 nM | 1.8 ± 0.1 nM | > 200 µg/mL | > 200 µg/mL | 2.5 ± 0.1 nM
COc1cc(Cc2cnc(N)nc2N)cc(OC)c1OC [Trimethoprim, trimethoprim] |  |  |  |  |  | 250 µg/mL (≈ 861 µM) | > 1000 µg/mL | >1000 µg/mL | >1000 µg/mL | > 1000 µg/mL |  |  |  |  | 
